Measurements from PMC6738068 (British Journal of Cancer, 2019).
pIC50: −log10 of the molar value. Read-outs that look alike come from different tables or passages of the source.

What was measured:
[1] = test system: patients with advanced solid tumours; assay: Phase 1 safety: treatment-related adverse events (CTCAE v4.03); assay type: in vivo, human
Procedure: All patients who received at least one dose of CFI-400945 were included in analyses of the safety-evaluable population. Data cut-off for the safety-evaluable population was June 5, 2018. Adverse events (AEs) were assessed according to the National Cancer Institute (NCI) Common Terminology Criteria for Adverse Events (CTCAE) v4.03. Investigators determined the causal relationship of an AE as either unrelated, possibly, probably, or related to study drug. Further information is available in Supplementary Information 1d.
Investigators managed any AE until resolution, stabilization, or until the AE was considered no longer clinically significant. All AE and serious AE (SAE) were recorded in source documents and individual case report forms from the time of first dose of study drug until 30 days following the last dose of study drug.
Safety evaluations were conducted at screening and during Cycle 1 on Day 1, 2, 4, 8, 11, 15, 22, and 28. In the expansion cohort, following the run-in amendment, safety evaluations were conducted on Cycle 0 Day 1, 2, 4, 8, and 11, then as above for Cycle 1. Evaluations included pre-defined combinations of medical history, physical examination, vital signs, clinical laboratory studies, and ECOG performance status.

[2] = Plasma pharmacokinetics in phase 1 patients; assay type: in vivo, human
Procedure: In the expansion cohort, blood samples were collected on Day 1 for Cycle 0 and Day 28 of Cycle 1. Additional samples were drawn prior to dosing on Day 15 of subsequent cycles.
Samples were analysed in accordance with all applicable United States Federal Drug Administration (FDA) and Organisation for Economic Co-operation and Development (OECD) regulations. […] After evaporation of the extraction solvent, sample extracts were reconstituted and analysed by reversed-phase high-performance liquid chromatography using a Waters Atlantis dC18 column. The mobile phase was nebulised using heated nitrogen in a Z-spray source/interface set to electrospray positive ionisation. The ionised compounds were detected using mass spectrometry. The lower limit of quantification was 20 pg/ml. Samples were analysed at Microconstants, San Diego, CA.

PLK1 = test system: PLK1; parameters: method as in printed; details: preclinical, ref not given; cited from earlier work
TrkB = test system: TrkB; parameters: method as in printed; details: preclinical, ref not given; cited from earlier work
FGFR2 = test system: FGFR2; parameters: method as in printed; details: preclinical, ref not given; cited from earlier work
[3] = test system: cytochrome P450 (CYP) enzyme 1A2; parameters: method as in printed; details: preclinical testing, ref not given; cited from earlier work
CYP3A4 = test system: CYP3A4; parameters: method as in printed; details: preclinical testing, ref not given; cited from earlier work
BSEP = test system: BSEP; parameters: method as in printed; details: preclinical testing, ref not given; cited from earlier work
[4] = safety-evaluable population (n = 52)

Compound: COc1ccc2c(c1)[C@]1(C[C@H]1c1ccc3c(/C=C/c4ccc(CN5C[C@@H](C)O[C@@H](C)C5)cc4)n[nH]c3c1)C(=O)N2 [CFI-400945]
- grade 2 neutropenia ([1]; 48 mg dose level): one patient
- long-term tolerability: time one patient remained on treatment ([1]; 48 mg, at data cut-off): > 3 years
- patients dose reduced ([1]; 64 mg): No patients
- patients dose reduced ([1]; 3 patients, at 72 mg and 96 mg dose levels, recurrent neutropenia): 6%
- Anorexia, treatment-related, Grade 1/2 ([1]; 3–32 mg cohort (n = 21)): 4 (19) N (%)
- Anorexia, treatment-related, Grade 3/4 ([1]; 3–32 mg cohort (n = 21)): 0 (0) N (%)
- Dehydration, treatment-related, Grade 1/2 ([1]; 3–32 mg cohort (n = 21)): 1 (5) N (%)
- Dehydration, treatment-related, Grade 3/4 ([1]; 3–32 mg cohort (n = 21)): 0 (0) N (%)
- Diarrhoea, treatment-related, Grade 1/2 ([1]; 3–32 mg cohort (n = 21)): 4 (19) N (%)
- Diarrhoea, treatment-related, Grade 3/4 ([1]; 3–32 mg cohort (n = 21)): 0 (0) N (%)
- Dyspepsia, treatment-related, Grade 1/2 ([1]; 3–32 mg cohort (n = 21)): 1 (5) N (%)
- Dyspepsia, treatment-related, Grade 3/4 ([1]; 3–32 mg cohort (n = 21)): 0 (0) N (%)
- Fatigue, treatment-related, Grade 1/2 ([1]; 3–32 mg cohort (n = 21)): 5 (24) N (%)
- Fatigue, treatment-related, Grade 3/4 ([1]; 3–32 mg cohort (n = 21)): 0 (0) N (%)
- Hypomagnesaemia, treatment-related, Grade 1/2 ([1]; 3–32 mg cohort (n = 21)): 0 (0) N (%)
- Hypomagnesaemia, treatment-related, Grade 3/4 ([1]; 3–32 mg cohort (n = 21)): 0 (0) N (%)
- Nausea, treatment-related, Grade 1/2 ([1]; 3–32 mg cohort (n = 21)): 3 (14) N (%)
- Nausea, treatment-related, Grade 3/4 ([1]; 3–32 mg cohort (n = 21)): 0 (0) N (%)
- Neutropenia, treatment-related, Grade 1/2 ([1]; 3–32 mg cohort (n = 21)): 0 (0) N (%)
- Neutropenia, treatment-related, Grade 3/4 ([1]; 3–32 mg cohort (n = 21)): 0 (0) N (%)
- Vomiting, treatment-related, Grade 1/2 ([1]; 3–32 mg cohort (n = 21)): 1 (5) N (%)
- Vomiting, treatment-related, Grade 3/4 ([1]; 3–32 mg cohort (n = 21)): 0 (0) N (%)
- Anorexia, All trAEs ([1]; 3–96 mg cohort (n = 52)): 10 (19) N (%)
- Dehydration, All trAEs ([1]; 3–96 mg cohort (n = 52)): 3 (6) N (%)
- Diarrhoea, All trAEs ([1]; 3–96 mg cohort (n = 52)): 11 (21) N (%)
- Dyspepsia, All trAEs ([1]; 3–96 mg cohort (n = 52)): 3 (6) N (%)
- Fatigue, All trAEs ([1]; 3–96 mg cohort (n = 52)): 19 (37) N (%)
- Hypomagnesaemia, All trAEs ([1]; 3–96 mg cohort (n = 52)): 3 (6) N (%)
- Nausea, All trAEs ([1]; 3–96 mg cohort (n = 52)): 14 (27) N (%)
- Neutropenia, All trAEs ([1]; 3–96 mg cohort (n = 52)): 11 (21) N (%)
- Vomiting, All trAEs ([1]; 3–96 mg cohort (n = 52)): 4 (8) N (%)
- grade 3/4 neutropenic events occurring in Cycle 1 ([1]; 6/10 events): 60%
- grade 3/4 treatment-related neutropenia, patients ([1]; 10/52 patients, all dose levels): 19%
- patients with dose interruptions ([1]; 27 of 52 patients): 52%
- Anorexia, treatment-related, Grade 1/2 ([1]; 48–64 mg cohort (n = 18)): 2 (11) N (%)
- Anorexia, treatment-related, Grade 3/4 ([1]; 48–64 mg cohort (n = 18)): 0 (0) N (%)
- Dehydration, treatment-related, Grade 1/2 ([1]; 48–64 mg cohort (n = 18)): 1 (6) N (%)
- Dehydration, treatment-related, Grade 3/4 ([1]; 48–64 mg cohort (n = 18)): 0 (0) N (%)
- Diarrhoea, treatment-related, Grade 1/2 ([1]; 48–64 mg cohort (n = 18)): 3 (17) N (%)
- Diarrhoea, treatment-related, Grade 3/4 ([1]; 48–64 mg cohort (n = 18)): 1 (6) N (%)
- Dyspepsia, treatment-related, Grade 1/2 ([1]; 48–64 mg cohort (n = 18)): 1 (6) N (%)
- Dyspepsia, treatment-related, Grade 3/4 ([1]; 48–64 mg cohort (n = 18)): 0 (0) N (%)
- Fatigue, treatment-related, Grade 1/2 ([1]; 48–64 mg cohort (n = 18)): 9 (50) N (%)
- Fatigue, treatment-related, Grade 3/4 ([1]; 48–64 mg cohort (n = 18)): 0 (0) N (%)
- Hypomagnesaemia, treatment-related, Grade 1/2 ([1]; 48–64 mg cohort (n = 18)): 1 (6) N (%)
- Hypomagnesaemia, treatment-related, Grade 3/4 ([1]; 48–64 mg cohort (n = 18)): 0 (0) N (%)
- Nausea, treatment-related, Grade 1/2 ([1]; 48–64 mg cohort (n = 18)): 5 (28) N (%)
- Nausea, treatment-related, Grade 3/4 ([1]; 48–64 mg cohort (n = 18)): 0 (0) N (%)
- Neutropenia, treatment-related, Grade 1/2 ([1]; 48–64 mg cohort (n = 18)): 1 (6) N (%)
- Neutropenia, treatment-related, Grade 3/4 ([1]; 48–64 mg cohort (n = 18)): 3 (17) N (%)
- Vomiting, treatment-related, Grade 1/2 ([1]; 48–64 mg cohort (n = 18)): 1 (6) N (%)
- Vomiting, treatment-related, Grade 3/4 ([1]; 48–64 mg cohort (n = 18)): 1 (6) N (%)
- Anorexia, treatment-related, Grade 1/2 ([1]; 72–96 mg cohort (n = 13)): 4 (31) N (%)
- Anorexia, treatment-related, Grade 3/4 ([1]; 72–96 mg cohort (n = 13)): 0 (0) N (%)
- Dehydration, treatment-related, Grade 1/2 ([1]; 72–96 mg cohort (n = 13)): 1 (8) N (%)
- Dehydration, treatment-related, Grade 3/4 ([1]; 72–96 mg cohort (n = 13)): 0 (0) N (%)
- Diarrhoea, treatment-related, Grade 1/2 ([1]; 72–96 mg cohort (n = 13)): 3 (23) N (%)
- Diarrhoea, treatment-related, Grade 3/4 ([1]; 72–96 mg cohort (n = 13)): 0 (0) N (%)
- Dyspepsia, treatment-related, Grade 1/2 ([1]; 72–96 mg cohort (n = 13)): 1 (8) N (%)
- Dyspepsia, treatment-related, Grade 3/4 ([1]; 72–96 mg cohort (n = 13)): 0 (0) N (%)
- Fatigue, treatment-related, Grade 1/2 ([1]; 72–96 mg cohort (n = 13)): 5 (38) N (%)
- Fatigue, treatment-related, Grade 3/4 ([1]; 72–96 mg cohort (n = 13)): 0 (0) N (%)
- Hypomagnesaemia, treatment-related, Grade 1/2 ([1]; 72–96 mg cohort (n = 13)): 2 (15) N (%)
- Hypomagnesaemia, treatment-related, Grade 3/4 ([1]; 72–96 mg cohort (n = 13)): 0 (0) N (%)
- Nausea, treatment-related, Grade 1/2 ([1]; 72–96 mg cohort (n = 13)): 6 (46) N (%)
- Nausea, treatment-related, Grade 3/4 ([1]; 72–96 mg cohort (n = 13)): 0 (0) N (%)
- Neutropenia, treatment-related, Grade 1/2 ([1]; 72–96 mg cohort (n = 13)): 0 (0) N (%)
- Neutropenia, treatment-related, Grade 3/4 ([1]; 72–96 mg cohort (n = 13)): 7 (54) N (%)
- Vomiting, treatment-related, Grade 1/2 ([1]; 72–96 mg cohort (n = 13)): 1 (8) N (%)
- Vomiting, treatment-related, Grade 3/4 ([1]; 72–96 mg cohort (n = 13)): 0 (0) N (%)
- median time for neutrophils to recover to grade ≤1 ([1]; in vivo): 7 days
- median time to first grade 3/4 neutropenic event ([1]; in vivo): 18 days
- time for neutrophils to recover to grade ≤1, range ([1]; in vivo): 6 to 14 days
- time to first grade 3/4 neutropenic event, range ([1]; in vivo): 14 to 126 days
- treatment-related AEs leading to study discontinuation ([1]; one DLT at 72 mg, one DLT in 64 mg cohort): two patients
- treatment-related anorexia, patients [1, 4]: 19%
- treatment-related dehydration, patients [1, 4]: 6%
- treatment-related diarrhoea, patients [1, 4]: 21%
- treatment-related dyspepsia, patients [1, 4]: 6%
- treatment-related fatigue, patients [1, 4]: 37%
- treatment-related hypomagnesaemia, patients [1, 4]: 6%
- treatment-related neutropenia, patients [1, 4]: 21%
- treatment-related vomiting, patients [1, 4]: 8%
- dose proportionality of exposure ([2]; 3-96 mg): generally dose proportional
- exposure at Day 28 higher than exposure at Day 1, average ([2]; across all dose levels): 37%
- AUC(0-t) ([2]; human, plasma, oral, 64 mg, Day 1, read-out: AUC0–24 h): 428 ng·h/mL
- Cmax ([2]; human, plasma, oral, 64 mg, Day 1, read-out: average Cmax): 37 ng/mL
- AUC(0-t) ([2]; human, plasma, oral, 64 mg, after 28 days of dosing, read-out: AUC0–24 h): 564 ng·h/mL
- Cmax ([2]; human, plasma, oral, 64 mg, after 28 days of dosing, read-out: average Cmax): 44 ng/mL
- AUC(0-t) ([2]; human, plasma, oral, Day 1, read-out: AUC0–24 h values associated with grade 3/4 neutropenia): > 400 ng·h/mL
- Cmax ([2]; human, plasma, oral, Day 1, read-out: Cmax values associated with grade 3/4 neutropenia): ≥ 38 ng/mL
- half-life ([2]; human, plasma, oral, 64 mg, Day 1, read-out: half-life (t1/2) (converted)): 9 h
- time to maximum plasma concentration (Cmax) after dosing ([2]; oral, fasting state): 2 to 4 h
- pIC50 (PLK1): < 4.30
- pIC50 (TrkB): > 7.00
- pIC50 (FGFR2): > 7.00
- induction of CYP1A2 [3]: inducer
- time-dependent inhibition of CYP3A4 (CYP3A4): time-dependent inhibitor
- inhibition of BSEP (BSEP): inhibitor
